Data set [1] in a line: Plasma pharmacokinetics of triterpenoids in rats after oral Jumihaidokuto (LC-MS/MS). It is filed as in vivo. The settings on record: rat; for Cmax: male, Sprague-Dawley, plasma. The protocol: Male Sprague–Dawley rats were purchased from Charles River Laboratories (Yokohama, Japan). The plasma pharmacokinetic study was performed according to the “Guidelines for the Care and Use of Laboratory Animals” of Tsumura & Co. Ethical approval for experimental procedures was obtained from the Laboratory Animal Committee of Tsumura & Co. Jumihaidokuto (JHT, Lot No. 332031900) was supplied by Tsumura & Co. (Tokyo, Japan) in the form of a powdered extract. JHT prepared in distilled water was orally administered to 16-h fasted rats at 2 g/10 mL/kg (n = 3). […] Plasma was obtained by centrifugation at 1700 g for 15 min at 4 °C and stored at −80 °C until further processing. […] Twenty-five microliters of methanol, an equal volume of atropine (2 ng/mL; Wako Pure Chemical Industries) as internal standard, and 750 µL of methanol were added to 200 µL of plasma samples, followed by mixing and centrifugation (7000× g, 5 min). For the preparation of the calibration curve, the same volumes of various concentrations of working solution were used instead of methanol. The supernatant was dried at 40 °C under a stream of nitrogen gas. The dried residue was dissolved in 50–60 μL of the initial mobile phase used for liquid chromatography–mass spectrometry with a tandem mass spectrometry system (LC-MS/MS; API4000 or Triple Quad 6500; AB Sciex, Tokyo, Japan) and then a 10- or 20-μL portion was injected into the LC-MS/MS system for the quantification of triterpenoids.

The subject of data set [2] is LL-37 production in normal human epidermal keratinocytes (NHEKs). The format is cell-based.
Data set [3] concerns recombinant human trypsin. Put plainly: Trypsin enzymatic assay (Boc-V-P-R-AMC). Conditions: for IC50: 0.78-100 μM, linear interpolation. It is filed as biochemical. The protocol: (§1) KLK5, KLK7, trypsin, and chymotrypsin C activities were evaluated according to the following methods supplied by R & D Systems Inc. (Minneapolis, MN, USA). The enzyme activity-dependent increase in the relative fluorescent unit (RFU) was measured, and the percentage of inhibition was calculated based on the formula: (1 − (A − B)/(C − B)) × 100, where A = RFU of test samples with enzymes, B = basal RFU without enzymes, and C = RFU of vehicle controls with enzymes.
To measure the trypsin activity, enzymatic reaction was performed at room temperature in 100 mM NaH2PO4 buffer (pH 8.0) containing 0.25 μg/mL recombinant human trypsin (Wako Pure Chemical Industries), 100 μM of Boc-V-P-R-AMC Fluorogenic Peptide Substrate, and 1.1% DMSO at final concentrations. […] was preincubated with test samples for 5 min, followed by the addition of peptide substrate. After incubating for 1 min, RFU was measured at Ex 380 nm/Em 460 nm. Leupeptin hemisulfate (42.1 μM) was used as a positive control.

In data set [4] the target is T1, recombinant human pro-chymotrypsin C activated by trypsin (Chymotrypsin C) (Homo sapiens, UniProt Q99895).
T1 construct: purchased R & D Systems Inc
T1 sequence (Q99895 30-268, other chains not shown): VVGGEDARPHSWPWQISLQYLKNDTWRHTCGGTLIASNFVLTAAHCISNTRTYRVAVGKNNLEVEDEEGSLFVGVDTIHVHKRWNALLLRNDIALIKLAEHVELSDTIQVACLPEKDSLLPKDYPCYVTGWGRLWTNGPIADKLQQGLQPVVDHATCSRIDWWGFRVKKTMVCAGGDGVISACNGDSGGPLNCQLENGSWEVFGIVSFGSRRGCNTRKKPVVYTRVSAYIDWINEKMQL
Put plainly: Chymotrypsin C enzymatic assay (Suc-A-A-P-F-AMC). The format is biochemical. The protocol:
as §1, with “enzymes. […] Activated chymotrypsin C (final 34.7 nM) was preincubated with test samples for 5 min, followed by the addition of peptide substrate. After incubating for 60 min, RFU was measured at Ex 380 nm/Em 460 nm.” for “enzymes.”

Data set [5] has as its system NHEKs. The experiment in a line: Cell growth test (XTT-based cell viability assay). Further details: species or system human. The settings on record: ursolic acid 0.5 and 5 μM, tumulosic acid 1 and 10 μM; 24 h; with or without 10 μM cycloheximide.
In data set [6] the target is T2, recombinant human pro-KLK7 activated by thermolysin (Kallikrein 7) (Homo sapiens, UniProt P49862).
T2 construct: purchased R & D Systems Inc
T2 sequence (P49862 30-253): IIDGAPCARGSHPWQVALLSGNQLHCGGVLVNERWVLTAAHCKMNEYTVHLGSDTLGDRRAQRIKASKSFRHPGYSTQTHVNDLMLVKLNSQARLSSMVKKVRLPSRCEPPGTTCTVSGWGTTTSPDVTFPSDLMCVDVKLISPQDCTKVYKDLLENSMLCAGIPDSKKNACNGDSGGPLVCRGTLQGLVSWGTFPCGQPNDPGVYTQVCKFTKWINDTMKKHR
Put plainly: KLK7 enzymatic assay (fluorogenic peptide substrate II). It is filed as biochemical.

Data set [7] addresses T3, recombinant human KLK5 (Homo sapiens, UniProt Q9Y337).
T3 construct: purchased R & D Systems Inc
T3 sequence (Q9Y337 23-293): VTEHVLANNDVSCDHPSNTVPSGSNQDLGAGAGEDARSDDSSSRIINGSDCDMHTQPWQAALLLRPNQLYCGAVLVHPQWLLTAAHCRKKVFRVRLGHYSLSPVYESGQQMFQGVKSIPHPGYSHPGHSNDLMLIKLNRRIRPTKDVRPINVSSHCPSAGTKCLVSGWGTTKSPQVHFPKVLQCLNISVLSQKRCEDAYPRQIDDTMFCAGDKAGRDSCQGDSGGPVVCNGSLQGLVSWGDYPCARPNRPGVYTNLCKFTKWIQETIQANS
Put plainly: KLK5 enzymatic assay (Boc-V-P-R-AMC fluorogenic substrate). It is filed as biochemical.

Where [8] appears, read: 0.78-100 μM, linear interpolation.

Like-named read-outs stand apart in the source and are kept apart here. Bounds are passed on as bounds.

`C=C(CC[C@@H](C(=O)O)[C@H]1[C@H](O)C[C@@]2(C)C3=C(CC[C@]12C)[C@@]1(C)CC[C@H](O)C(C)(C)[C@@H]1CC3)C(C)C` [Tumulosic acid]: the Cmax in data set [1] (2 g/kg, single oral Jumihaidokuto 2 g/10 mL/kg) stood at 116 ng/mL; in data set [1] (single oral Jumihaidokuto 2 g/kg, converted from 116.1 ng/mL), 238 nM. For the same compound, the “time of Cmax” value in data set [1] (single oral Jumihaidokuto 2 g/10 mL/kg) is 2 h. Further, the “amount of LL-37 in NHEK lysates” value in data set [2] is “decreased”. For the same compound, the “Inhibition % at 100 μM, Trypsin” value in data set [3] (100 μM) was found to be 73.2 ± 1.6%. The IC50 was 45.3 µM in data set [3] (listed as Tumulosic Acid); 10.5 µM in data set [3] (listed as tumulosic acid); more than 100 µM in data set [4] (setting [8]); more than 100 µM in data set [6] (setting [8]); 19.3 µM in data set [7] (dose-response experiment of Figure 2, read-out: IC50 anti-KLK5 activity); 14.8 µM in data set [7] (selectivity experiment of Table 2, 0.78-100 μM, linear interpolation, read-out: IC50 Kallikrein 5). Moreover, the “Inhibition % at 100 μM, Chymotrypsin C” value in data set [4] (100 μM) was found to be 4.1 ± 5.2%. Further, the inhibition at 100 µM turned out to be 4% in data set [4] (100 μM); 19.5 ± 1.5% in data set [6]; 58.7 ± 0.2% in data set [7] (100 μM, read-out: Inhibition % at 100 μM, Kallikrein 5). The “cytotoxic effect on cell proliferation” value in data set [5] was “No cytotoxic effect”. Also, the inhibition at 10 µM in data set [7] (10 μM test compound, KLK5 8.1 nM, substrate 100 μM, mean ± SEM of triplicate, read-out: Anti-KLK5 Activity % Inhibition) was 36 ± 1.9%.

The term Cmax denotes the highest concentration seen after dosing. As usually defined, the IC50 is the concentration at which inhibition is half-maximal. As usually defined, the inhibition is how much of the control response was suppressed.

Values taken from article PMC6150226, “Inhibition of Human Kallikrein 5 Protease by Triterpenoids from Natural Sources” (Molecules : A Journal of Synthetic Chemistry and Natural …, 2017).
